For this test, the system named is CASM3C: Coronary artery smooth muscle cells (IL-1β, TNFα, IFNγ). The experiment in a line: BioMAP CASM3C system. In kind it is cell-based, human. The note with it: CASM3C system; at the compound's active concentration. An excerpt:
The Diversity PLUS panel allows test agent characterization in an unbiased way across a broad set of systems modeling various human disease states. These systems are designed to model complex human tissue and disease biology of the vasculature, skin, lung, and inflammatory tissues.
BioMAP systems are constructed with one or more primary cell types from healthy human donors, with stimuli (such as cytokines or growth factors) added to capture relevant signaling networks that naturally occur in human tissue or pathological conditions. Vascular biology is modeled in both a Th1 (3C system) and a Th2 (4H system) inflammatory environment, as well as in a Th1 inflammatory state specific to arterial smooth muscle cells (CASM3C system). Additional systems recapitulate aspects of the systemic immune response including monocyte-driven Th1 inflammation (LPS system) or T cell stimulation (SAg system), chronic Th1 inflammation driven by macrophage activation (lMphg system) and the T cell-dependent activation of B cells that occurs in germinal centers (BT system). The BE3C system (Th1) and the BF4T system (Th2) represent airway inflammation of the lung, while the MyoF system models myofibroblast-lung tissue remodeling. Lastly, skin biology is addressed in the KF3CT system modeling Th1 cutaneous inflammation and the HDF3CGF system modeling wound healing.
Each test agent generates a signature BioMAP profile that is created from the changes in protein biomarker readouts within individual system environments. Biomarker readouts (7-17 per system) are selected for therapeutic and biological relevance, are predictive for disease outcomes or specific drug effects and are validated using agents with known mechanism of action (MoA). Each readout is measured quantitatively by immune-based methods that detect protein (e.g., ELISA) or functional assays that measure proliferation and viability. BioMAP readouts are diverse and include cell surface receptors, cytokines, chemokines, matrix molecules and enzymes.
Activated BioMAP systems were incubated with each compound for 24 to 72 hours. Protein-based biomarkers from activated cell systems were measured and compared with non-treated control systems.

The structures appear in SMILES notation.

Consider `O=C(O)CNC(=O)c1ccccc1` [hippurate], for which the “Thrombomodulin, log10 reduction vs nontreated controls” value was −0.16 log10.

Source of the values: patent US12427179B2, “Compositions and methods for diagnosis and treatment of neurodegenerative diseases” (EPITRACKER, INC., priority 2019, dated 2025).
